According to publication PMC8672851 (Science translational medicine, 2021):

Experiments:
[1] = test system: primary patient AML blasts; assay: colony-forming assay of primary patient AML samples in methylcellulose; assay type: cell-based, human; settings: leukemia cells from patients with AML
MLL-AF9 cells = assay: MLL-AF9 syngeneic AML mouse model; assay type: in vivo; settings: for leukemic disease burden: peripheral blood / bone marrow
[2] = test system: patient-derived primary AML cells; assay: orthotopic patient-derived xenograft; assay type: in vivo, mouse; settings: PDX; for leukemic disease burden: hCD45+ cells in peripheral blood or bone marrow
[3] = assay type: in vivo; settings: mice
[4] = test system: panel of human cancer cell lines; assay: viability across a panel of human cancer cell lines; assay type: cell-based; settings: 131 human cancer cell lines, 16 cancer types; three days
MV4-11-luc cells = settings: MV4-11 xenograft
[5] = phase I trial; ref NCT02243917; cited from earlier work
MV4-11 cells [6] = assay: cellular viability of MV4-11 AML cell line; assay type: cell-based, human
[7] = test system: poly-ubiquitinated proteins, GRP78, spliced XBP-1, ATF-4; assay type: cell-based, human
γH2AX = assay: FACS analysis of intracellular gammaH2AX in AML cells; assay type: cell-based, human
P-ATM (S1981) = assay: ATM phosphorylation upon etoposide DSB induction; assay type: cell-based, human; settings: upon etoposide DSBs induction
MV4-11 cells [8] = assay: combination with doxorubicin in MV4-11 cell line; assay type: cell-based, human; settings: MV4-11 AML cell line
[9] = preclinical pharmacokinetics in multiple species; assay type: in vivo; settings: preclinical studies in multiple species
human cone PDE6 (PDE6C) = settings: in vitro biochemical assays; relative to CB-5083
[10] = in vivo
RG37-DR-GFP cells = assay: homologous recombination reporter; assay type: cell-based; settings: 0.4 μM; 48 hours post-transfection with I-SceI
GC92-NHEJ-CD4 cells = assay: non-homologous end-joining reporter; assay type: cell-based; settings: 0.4 μM; 48 hours post-transfection with I-SceI
[11] = test system: MV4-11 and UT-7 AML cell lines; assay: Annexin V/propidium iodide staining and flow cytometry; assay type: cell-based, human; settings: 0.2 μM for 8 days
[12] = test system: UT-7 cells expressing VCP (A530T); assay: growth inhibition of UT-7 cells expressing NMS-873-resistant VCP; assay type: cell-based, human; settings: four days
[13] = cited from earlier work

## Cc1cc2c(C(N)=O)cccc2n1-c1nc2c(c(NCc3ccccc3)n1)COCC2 [CB-5083]
[1]
  colony formation of AML blasts: impaired the capacity of AML blasts to form colonies
MLL-AF9 cells
  survival: prolonged mice survival
  leukemic disease burden: decreased disease burden
[2]
  leukemic disease burden: substantially decreased disease burden
[3]
  tolerability (weight, blood counts): no major weight loss or hematopoietic toxicity
[4]
  sensitivity of AML cell lines versus other cancer subtypes: more sensitive
MV4-11-luc cells
  disease burden (bioluminescence): decreased disease burden
  survival: prolonged mice survival
[5]
  myelosuppression in patients: not myelosuppressive

## Cc1cc2c(C(N)=O)cccc2n1-c1nc2c(c(NCc3ccccc3)n1)CCCN2 [CB-5339]
MV4-11 cells [6]
  IC50: 186 nM
[7]; AML context
  concentration at which ATF-4 accumulated: ≥ 0.8 µM
  concentration at which ER stress marker GRP78 accumulated: ≥ 0.4 µM
  concentration at which spliced XBP-1 accumulated: ≥ 1.6 µM
[7]; AML context, dose-dependent
  concentration inducing polyubiquitin protein accumulation: ≥ 0.4 µM
γH2AX; 0.2 μM
  effect on γH2AX accumulation: increased γH2AX accumulation
P-ATM (S1981)
  effect on ATM phosphorylation: impaired ATM phosphorylation
MV4-11 cells [8]
  interaction with doxorubicin: synergized with doxorubicin
MLL-AF9 cells
  survival: prolonged survival
  leukemic disease burden: decreased circulating leukemic cells
[2]; 90 mg/kg
  survival: prolonged mice survival
[2]
  leukemic disease burden: decreased bone marrow leukemic infiltration
[3]
  tolerability (weight, blood counts): well tolerated
[9]
  bioavailability compared to CB-5083: higher bioavailability
  clearance compared to CB-5083: lower clearance
Human cone PDE6 (PDE6C)
  fold less active on human cone PDE6 (PDE6C) compared to CB-5083: 15 fold
[10]
  times lower Cmax in rat retina compared to CB-5083: 31 times

## Cc1cc(OCc2nnc(SC3CCCC3)n2-c2cccnc2)ccc1-c1ccc(S(C)(=O)=O)cc1 [NMS-873]
[7]; AML cells
  concentration at which poly-ubiquitinated proteins started to accumulate: 5 µM
γH2AX; MV4-11 and UT-7, 0.4 μM, 72 hours
  effect on γH2AX: increased γH2AX
RG37-DR-GFP cells
  effect on homologous recombination (HR) DSB repair: impairment of HR
GC92-NHEJ-CD4 cells
  effect on non-homologous end-joining (NHEJ): did not impair NHEJ
[1]
  colony formation of AML blasts: impaired the capacity of AML blasts to form colonies
[11]
  cell death / apoptosis: induced Annexin-positive cell death
[12]
  effect of VCP (A530T) expression on compound-induced loss of viability: rescued the loss of viability
[13]
  pharmacological and bioavailability properties: lacks appropriate pharmacological and bioavailability properties
